Assay results reported in patent publication US20090023794A1, “Use of Sumoylation Inhibitors for the Treatment of Neurodegenerative Disease” (Caritas St. Elizabeth Medical Center of Boston, Inc., priority 2005, published 2009).

Columns and labels:
histone acetylation = experiment: Histone acetylation in CHP-212 cells by western blotting; assay type: cell-based, human; details: data not shown
[1] = test system: tyrosine hydroxylase expression in CHP-212 cells; experiment: Restoration of tyrosine hydroxylase expression by HDAC inhibitors in CHP-212 cells transfected with DJ-1 siRNA (western blot); assay type: cell-based, human; details: for reversal of tyrosine hydroxylase inhibition caused by DJ-1 inactivation (in words): CHP-212 cells transfected with DJ-1 siRNA/RNAi
From the text: Various acetylated histone species from CHP-212 cells transfected with control or DJ-1 RNAi for 4 days were immunoprecipitated with specific antibodies, and amplified with primers specifically for the human tyrosine hydroxylase promoter using semi-quantitative PCR. Reactions were stopped at indicated PCR cycles for gel analysis. Input: 0.5% of input DNA before IP. The inhibition of endogenous tyrosine hydroxylase and DJ-1 by the DJ-1-specific siRNA for the ChIP assays was confirmed by Western blots. […] after the transfection of control (CTR) or DJ-1 RNAi constructs, CHP-212 cells were treated with increasing amount of sodium butyrate for additional 88 hours before harvesting, with 2 changes of fresh medium containing sodium butyrate during the course of the experiment. […] The protein levels of TH, DJ-1 and β-actin were determined by western blotting.
To validate the role of histone acetylation in DJ-1-mediated regulation of the human tyrosine hydroxylase promoter, CHP-212 cells were transfected with control or DJ-1-specific siRNA. ChIP assays were performed with antibodies that specifically recognize acetylated histones, and the human tyrosine hydroxylase promoter sequences were amplified using semi-quantitative PCR. Consistent with the concurrent inhibition of the tyrosine hydroxylase protein expression, DJ-1 inactivation caused a decrease in the amount of tyrosine hydroxylase promoter-associated acetylated histones, indicating transcriptional silencing (FIG. 6A). Since DJ-1 acted as a transcriptional co-activator eventually promoting histone acetylation, it was likely that chemical inhibitors of HDAC would reverse the effects of DJ-1 inactivation. Therefore, CHP-212 cells were pre-transfected with control or DJ-1-specific siRNA, and the cells were treated with increasing amounts of the HDAC inhibitor sodium butyrate. Sodium butyrate restored tyrosine hydroxylase expression (to 88% of the levels in the control at 0.2 mM) even in the presence of DJ-1 siRNA (FIG. 6B). […]

With `CCCC(=O)[O-].[Na+]` [sodium butyrate] the “histone acetylation (in words)” value (histone acetylation) was “increased histone acetylation”, the “tyrosine hydroxylase expression restored, relative to the levels in the control” value ([1]; 0.2 mM, CHP-212 cells in the presence of DJ-1 siRNA, western blot) was 88 % of the levels in the control and the “reversal of tyrosine hydroxylase inhibition caused by DJ-1 inactivation (in words)” value [1] was “restoration of tyrosine hydroxylase expression”.
With `CC(/C=C/C(=O)NO)=C\[C@@H](C)C(=O)c1ccc(N(C)C)cc1` [trichostatin A] the “reversal of tyrosine hydroxylase inhibition caused by DJ-1 inactivation (in words)” value [1] was “similarly reversed the tyrosine hydroxylase inhibition”.
